Test results published in BindingDB's records for doi:10.1021/jm00039a019 (Zeria Pharmaceutical, 1994).

Biological target: Prolyl endopeptidase (Canis familiaris)
Test: In vitro inhibitory activity against purified prolyl endopeptidase (PEP) from canine brain.

IC50 | SMILES
0.85 nM | O=C[C@@H]1CSCN1C(=O)[C@@H]1CSCN1C(=O)C[C@H]1CCc2ccccc2C1 [(R)-3-[(R)-3-((S)-2-1,2,3,4-Tetrahydro-naphthalen-2-yl-acetyl)-thiazolidine-4-carbonyl]-thiazolidine-4-carbaldehyde]
3500 nM | CC(C)c1ccc(C(=O)c2cccs2)c(SCCCCCCCCN(C)C)n1 [[2-(8-Dimethylamino-octylsulfanyl)-6-isopropyl-pyridin-3-yl]-thiophen-2-yl-methanone]
